Source: article PMC6100082, “Pyridine-Ureas as Potential Anticancer Agents: Synthesis and In Vitro Biological Evaluation” (Molecules : A Journal of Synthetic Chemistry and Natural …, 2018)
Like-named read-outs stand apart in the source and are kept apart here.

Tests used:
[1] = tested on: breast cancer MCF-7 cell line; assay: In vitro anti-proliferative activity, MTT assay; assay type: cell-based, human; conditions: MCF-7, MTT
Procedure: The in vitro anti-proliferative activity of the newly prepared pyridine-ureas 8a–n was examined against breast cancer MCF-7 cell line. The assay was carried out, as triplicates, utilizing the 3-(4,5-dimethylthiazol-2-yl)-2,5-diphenyltetrazolium bromide (MTT) colorimetric assay as described by T. Mosmann. Doxorubicin and Sorafenib were included in this assay as a reference drug.
MCF-7 (human breast cancer cell line) and WI-38 (human lung fibroblast cell line), were obtained from American Type Culture Collection (Manassas, VA, USA). The cells were propagated in DMEM and supplemented with 10% heat-inactivated FBS (Hyclone), 10 μg/mL of insulin (Manufacturer, Sigma, St. Louis, MO, USA), and 1% penicillin-streptomycin. MTT assay was utilized to examine the in vitro anti-proliferative activity of the newly prepared ureas following the reported procedures. […] The data presented are the mean of at least three separate experiments.

[2] = Homo sapiens, MCF7, 48 h, 48 h of incubation, read-out: IC50 48 h
[3] = Homo sapiens, MCF7, 72 h, 72 h of incubation, read-out: IC50 72 h
[4] = 48 h of incubation, read-out: IC50 48 h

| SMILES | melting point | IC50 [1, 2] | IC50 [1, 3] | IC50 [1, 4] |
| --- | --- | --- | --- | --- |
| COc1ccc(-c2ccc(NC(=O)Nc3cccc(OC)c3)c(C)n2)cc1 [Compound 8f, 1-(3-Methoxyphenyl)-3-(6-(4-methoxyphenyl)-2-methylpyridin-3-yl) Urea] | 227 to 230 °C | > 50 µM | > 50 µM | > 50 µM |
| COc1cccc2c1C(=O)c1c(O)c3c(c(O)c1C2=O)C[C@@](O)(C(=O)CO)C[C@@H]3O[C@H]1C[C@H](N)[C@H](O)[C@H](C)O1 [Dox., Doxorubicin, reference compound] |  | 1.93 ± 0.15 µM | 1.07 ± 0.07 µM |  |
| COc1ccc(-c2ccc(NC(=O)Nc3ccccc3)c(C)n2)cc1 [Compound 8a, 1-(6-(4-Methoxyphenyl)-2-methylpyridin-3-yl)-3-phenylurea] | 205 to 207 °C | 3.03 ± 0.22 µM | 2.83 ± 0.25 µM |  |
| COc1ccc(-c2ccc(NC(=O)Nc3ccc(Cl)cc3)c(C)n2)cc1OC [Compound 8k, 1-(4-Chlorophenyl)-3-(6-(3,4-dimethoxyphenyl)-2-methylpyridin-3-yl) Urea] | 266 to 267 °C | 5.63 ± 0.36 µM | 3.45 ± 0.3 µM |  |
| COc1ccc(NC(=O)Nc2ccc(-c3ccc(OC)cc3)nc2C)cc1 [Compound 8g, 1-(4-Methoxyphenyl)-3-(6-(4-methoxyphenyl)-2-methylpyridin-3-yl) Urea] | 241 to 242 °C | 4.12 ± 0.27 µM | 27.2 ± 1.98 µM |  |
| CNC(=O)c1cc(Oc2ccc(NC(=O)Nc3ccc(Cl)c(C(F)(F)F)c3)cc2)ccn1 [Sorafenib, reference compound] |  | 4.5 ± 0.3 µM | 1.71 ± 0.15 µM |  |
| COc1ccc(-c2ccc(NC(=O)Nc3cccc(Cl)c3)c(C)n2)cc1 [Compound 8c, 1-(3-Chlorophenyl)-3-(6-(4-methoxyphenyl)-2-methylpyridin-3-yl) Urea] | 212 to 214 °C | 6.4 ± 0.41 µM | 3.52 ± 0.11 µM |  |
| COc1ccc(-c2ccc(NC(=O)Nc3ccccc3)c(C)n2)cc1OC [Compound 8h, 1-(6-(3,4-Dimethoxyphenyl)-2-methylpyridin-3-yl)-3-phenylurea] | 238 to 239 °C | > 50 µM | > 50 µM | > 50 µM |
